Target: T1, human serum albumin (HSA) (Homo sapiens, UniProt P02768)
T1 construct: gene ALB; Albumin from human serum (A1887, Sigma Aldrich)
Assay: intrinsic fluorescence quenching titration (Stern-Volmer), synchronous and 3D fluorescence
Format: binding
Conditions: read-out: KB × 10^6 (M^-1) (converted)

T1 sequence (P02768 25-609): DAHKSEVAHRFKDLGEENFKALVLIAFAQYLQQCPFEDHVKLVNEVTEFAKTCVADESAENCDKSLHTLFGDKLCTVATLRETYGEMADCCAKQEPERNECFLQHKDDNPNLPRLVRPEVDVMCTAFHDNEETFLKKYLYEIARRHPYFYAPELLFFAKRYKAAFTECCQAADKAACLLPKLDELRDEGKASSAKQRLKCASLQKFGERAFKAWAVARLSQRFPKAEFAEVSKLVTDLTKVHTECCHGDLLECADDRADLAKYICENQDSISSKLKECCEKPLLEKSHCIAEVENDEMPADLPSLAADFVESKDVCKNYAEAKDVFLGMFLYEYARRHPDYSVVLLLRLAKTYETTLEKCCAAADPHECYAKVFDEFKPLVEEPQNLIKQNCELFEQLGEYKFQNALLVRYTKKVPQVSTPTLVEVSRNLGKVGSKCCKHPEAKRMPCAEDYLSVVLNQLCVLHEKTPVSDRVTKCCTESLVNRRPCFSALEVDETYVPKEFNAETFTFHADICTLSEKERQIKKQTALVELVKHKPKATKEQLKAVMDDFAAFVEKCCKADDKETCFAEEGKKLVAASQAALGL

Kd: 0.559 µM
Structure (SMILES): Cc1cc(OC(=O)c2c(C)cc(OC(=O)c3c(C)cc(O)cc3O)cc2O)cc(O)c1C(=O)O [GA, Gyrophoric acid]

From paper PMC11203575, “The First In Vivo Study Shows That Gyrophoric Acid Changes Behavior of Healthy Laboratory Rats” (International Journal of Molecular Sciences, 2024)
